Counter-ions that a name gives are not always drawn. Like-named read-outs stand apart in the source and are kept apart here.
Legend:
[1] = system: P. aeruginosa PAO1 biofilm; test: continuous flow chamber biofilm, 3-day-old, harvested and plated on LB plates for viability; assay type: cell-based
Excerpt: (§1) The wild-type P. aeruginosa PAO1 used for the planktonic and biofilm experiments was obtained from the Pseudomonas Genetic Stock Center (www.pseudomonas.med.ecu.edu, strain PAO0001). The wild-type S. aureus 8325-4, used for planktonic and biofilm experiments was described by Novick, R. P. 1967. For plating, Luria broth (LB) medium mix with 2.0% agar was used. For all experiments including bacterial biofilms, AB minimal medium supplemented with glucose was used except if different is mentioned. […] The continuous flow system is based on once through flow chambers perfused with sterile AB minimal medium containing 0.3 mM glucose as described by Christensen et al. (1999). Continuous flow biofilm tolerance to acetic acid was assessed by growing P. aeruginosa or S. aureus biofilms for three days, then subsequently at day three to four supplementing the AB minimal medium with different concentrations of acetic acid or HCl (HCL served as a as control to acetic acid treatments). […] Due to the buffer capacity of the AB minimal medium used, the pH of the solution became 4.33. […] After the treatment the biofilm biomasses were harvested mechanically from the flow chambers and plated on LB plates for determination of viability. […] The kinetics of antimicrobial activity against mature biofilms was tested by treating a 3-day-old continuous flow chamber biofilms of either P. aeruginosa with 0.5% or S. aureus with 1.0% acetic acid for 24 hours. Due to the buffer capacity of the AB minimal medium used the pH of the solution became 4.33. […] After the treatment the biofilms were harvested mechanically, by scraping with a sterile scalpel, from the flow chambers and plated on LB plates for determination of viable counts.

S. aureus 8325-4 biofilm = system: S. aureus 8325-4 biofilm
Excerpt: as §1

P. aeruginosa biofilm = test: static 24 hour old biofilm in microtiter dishes, CFU after treatment; assay type: cell-based; conditions: for antimicrobial effect on static biofilm (CFU): 0.5% acetic acid; for synergistic antimicrobial effect in combination with acetic acid: combined with 0.5% acetic acid, static biofilm
Excerpt: AB minimal medium without acetic acid adjusted to different pH values was used as control.
AB minimal medium supplemented with increasing concentrations of tobramycin served as control. The biofilm were harvested and plated on LB plates to determine the CFU after treatment (For visual appearance “no growth” is arbitrarily given a CFU value of 2).
AB minimal medium without acetic acid, but supplemented with increasing concentrations of tobramycin served as control.
The wild-type P. aeruginosa PAO1 used for the planktonic and biofilm experiments was obtained from the Pseudomonas Genetic Stock Center (www.pseudomonas.med.ecu.edu, strain PAO0001). The wild-type S. aureus 8325-4, used for planktonic and biofilm experiments was described by Novick, R. P. 1967.
For plating, Luria broth (LB) medium mix with 2.0% agar was used. For all experiments including bacterial biofilms, AB minimal medium supplemented with glucose was used except if different is mentioned.
Planktonic cultures were grown in shake flasks at 37° C.
Static biofilm tolerance to acetic acid was assessed by exchanging the AB minimal medium of 24 h old biofilms with AB minimal medium supplemented with different concentrations of acetic acid or HCl as control. To raise the pH of either acetic acid or HCl, NaOH was added in different concentrations.
To elucidate a synergistic antimicrobial effect of acetic acid and antibiotics, static biofilms of P. aeruginosa were grown for 24 hours prior to subsequent treatment with increasing concentrations of tobramycin and 0.5% acetic acid in the pH interval 3-6.85. The pH was adjusted by supplementing the AB minimal medium with either HCl or NaOH.

[2] = system: clinical non-mucoid P. aeruginosa isolate biofilm
[3] = system: clinical mucoid P. aeruginosa isolate biofilm
[4] = 0.5% acetic acid, 24 hours, AB minimal medium, pH 4.33
[5] = 1.0% acetic acid, 24 hours, AB minimal medium, pH 4.33

CC(=O)O [acetic acid]
eradication of mature biofilm (viability by plating) ([1]; 0.5% acetic acid in sterile miliQ water): Complete eradication
eradication of mature biofilm (viability by plating) [1, 4]: completely eradicated
time to complete killing of all bacteria ([1]; 0.5% acetic acid, AB minimal medium, pH 4.33): 3 h
eradication of mature biofilm (viability by plating) [1, 5]: completely eradicated
eradication of mature biofilm (viability by plating) (S. aureus 8325-4 biofilm; [4]): reduced the number of viable cells
eradication of mature biofilm (viability by plating) (S. aureus 8325-4 biofilm; 1.0% acetic acid in sterile miliQ water): Complete eradication
eradication of mature biofilm (viability by plating) (S. aureus 8325-4 biofilm; [5]): complete eradication
time to complete killing of all bacteria (S. aureus 8325-4 biofilm; 1.0% acetic acid, AB minimal medium, pH 4.33): 3 h
antibacterial effect on static biofilm (CFU) (P. aeruginosa biofilm; 0.5% acetic acid alone, pH 6.85): no antibacterial effect
antimicrobial effect on static biofilm (CFU) (P. aeruginosa biofilm; pH 5): reduced effect
antimicrobial effect on static biofilm (CFU) (P. aeruginosa biofilm; pH 5.5 and above): no effect
antimicrobial effect on static biofilm (CFU) (P. aeruginosa biofilm; pH interval 3-4.76): eradicated biofilms
eradication of biofilm [2]: eradicates the biofilms
eradication of biofilm [3]: eradicates the biofilms

NC[C@H]1O[C@H](O[C@H]2[C@H](O)[C@@H](O[C@H]3O[C@H](CO)[C@@H](O)[C@H](N)[C@H]3O)[C@H](N)C[C@@H]2N)[C@H](N)C[C@@H]1O [tobramycin, reference compound]
reduction of bacterial viability (P. aeruginosa biofilm; tobramycin alone, concentrations above 12.5 μg/ml): 5 fold

colistin [reference compound]
synergistic antimicrobial effect in combination with acetic acid (P. aeruginosa biofilm): analogous synergistic effects

O=C(O)c1cn(C2CC2)c2cc(N3CCNCC3)c(F)cc2c1=O [ciprofloxaxine, reference compound]
synergistic antimicrobial effect in combination with acetic acid (P. aeruginosa biofilm): analogous synergistic effects

Cl [HCl, reference compound]
eradication of mature biofilm (viability by plating) ([1]; AB minimal medium adjusted to pH 4.33 using HCl, 24 hours (control)): had no effect

Reference: patent publication US9655840B2, “Wound care products” (RIGSHOSPITALET, COPENHAGEN UNIVERSITY HOSPITAL, priority 2009, dated 2017)
